Counter-ions that a name gives are not always drawn.
Legend:
STZ rats = assay: Efficacy in STZ model (plasma glucose, insulin, lipids, glucose clamp); format: in vivo, wistar rats; conditions: 3 mg/kg orally for 8 weeks
Protocol: Rosiglitazone Hydrochloride tablets were purchased from Zhejiang wanma pharmaceutical Co., Ltd. Mangiferin and mangiferin calcium salts were suspended with 3% sodium carboxymethyl cellulose.
Normal female wistar rats (SPF, 3 months age, 180-200 g) were purchased from Hainan provincial peoples hospital experimental Animal Center. The animals were kept in a room temperature (25˜28° C.) with free access of food and water. A light-dark cycle (6 a.m and 6 p.m) was strictly enforced. High fat chow is composed of 55% basic chow, 2% protein, 16% fat, 27% white sugar.
Model: After the rats were fasted for 12 hours, the rats are injected 30-35 mg/kg streptozotocin (STZ) solution once by tail vein. STZ solution is prepared to 2% concentration with […], pH 4.4 citrate-sodium citrate buffer before use. The model rats were weighed, taked out tail vein blood, tested blood glucose when the Model is done after 14 days after fasting for 12 hours, then injected 20% glucose solution ([…]) by intraperitoneal, determined blood glucose in 0.5 h, 1 h, 2 h. The rats whose glucose tolerance is abnormal were brought into experiments. Normal wistar rats were fed normal chow, model rats were fed high fat chow.
Experimental group:normal wistar rats group (n=10); after Diabetes model is succeed, the rats were randomly divided into 7 groups: Diabetes model group (n=10); mangiferin groups (20, 40, 80 mg/kg, each 10 rats); mangiferin calcium groups (10, 20, 40 mg/kg, each 10 rats); Rosiglitazone Hydrochloride group [3 mg/kg, n=10]. Test samples or vehicle control was given orally for 8 weeks. Diabetes model group and normal group were given vehicle.
Determination of insulin sensitivity (Glucose infusion rate): Using glucose clamp technique, in accordance with Konglingdong'method ? KONG Ling-dong, ZHU Liang-zheng, SONG Ju-min, etc al. Intervention Effects of Tiaozhi Jiangtang Tablet on Insulin Resistance in Rats with Diabetes Mellitus Type 2.
Determination of plasma glucose and lipid: Rats were taken whole blood after killed, then serum was separated, determined plasma glucose (GLU), insulin (INS), triglycerides (TG) and free fatty acids (FFA).
GLU and TG levels were determined using GF-D800 semi-auto chemist which was purchased from Shandong Gaomi Caihong Analytical Instrument Co., Ltd. Free fatty acids were determined using copper colorimetric determination. The kits for Determination of free fatty acids were purchased from Nanjing Jiancheng Bioengineering Institute. Insulin: radioimmunoassay (RIA), γ counter counts. insulin RIA Kit was purchased from Shandong Weifang City three-dimensional (3V) Biological company.
Statistics: The results have been calculated as mean±SD ( x±SD) and compareisons of the data have been done by t-test.

GK rats = assay: Efficacy in GK model (plasma glucose, insulin, lipids); format: in vivo, Goto-Kakizaki rats (GK); conditions: 3 mg/kg orally for 30 days
Protocol: Rosiglitazone Hydrochloride tablets were purchased from Zhejiang wanma pharmaceutical Co., Ltd. Mangiferin and mangiferin calcium were suspended with 3% sodium carboxymethyl cellulose before use.
Goto-Kakizaki rats (GK) (16 weeks age, ♀ ♂) were purchased from Shanghai SLAC laboratory animal Co., Ltd. The animals were kept in IVC cages with temperature (22° C.). There are two rats in each cage.
Experimental group: GK rats group (n=10); mangiferin groups (20, 40, 80 mg/kg, each 10 rats); mangiferin calcium groups (10, 20, 40 mg/kg, each 10 rats); Rosiglitazone Hydrochloride group [3 mg/kg, n=10]. Test samples or vehicle control was given orally for 30 days. GK rats group were given vehicle.
The blood specimens were taken by abdominal aorta at the end of the test. Plasma glucose (GLU), insulin (INS), triglycerides (TG), total cholesterol (TC), high density lipoprotein (HDL), low density lipoprotein (LDL) were determined
GLU, TC, TG, HDL and LDL levels were determined using GF-D800 semi-auto chemist which was purchased from Shandong Gaomi Caihong Analytical Instrument Co., Ltd. Insulin: radioimmunoassay (RIA), γ counter counts. insulin RIA Kit was purchased from Shandong Weifang City three-dimensional (3V) Biological company.
Statistics: The results have been calculated as mean±SD ( x±SD) and comparisons of the data have been done by t-test.

Question: For `CN(CCOc1ccc(CC2SC(=O)NC2=O)cc1)c1ccccn1` (centres unmarked) [Rosiglitazone, Rosiglitazone Hydrochloride], which Glucose infusion rate (STZ rats; glucose clamp) is on record?
Answer: 24.75 ± 3.69 mg/kg · min

Question: And the FFA (STZ rats; high fat chow)?
Answer: 1.25 ± 0.13 µmol/L

Question: And the GLU (STZ rats; high fat chow)?
Answer: 7.49 ± 2.18 mmol/L

Question: And the INS (STZ rats; high fat chow)?
Answer: 19.87 ± 4.21 μ IU/ml

Question: And the TG (STZ rats; high fat chow)?
Answer: 1.44 ± 0.16 mmol/L

Question: And the GLU (GK rats)?
Answer: 24.38 ± 2.26 mmol/L

Question: And the HDL (GK rats)?
Answer: 0.78 ± 0.07 mmol/L

Question: And the INS (GK rats)?
Answer: 17.58 ± 9.80 μ IU/ml

Question: And the LDL (GK rats)?
Answer: 1.37 ± 0.19 mmol/L

Question: What about the TC (GK rats) of the same compound?
Answer: 2.40 ± 0.17 mmol/L

Question: And the TG (GK rats)?
Answer: 1.48 ± 0.12 mmol/L
